GI50 and TGI data for 14 compounds are collected here from PubChem BioAssay (NCI).

Among the test systems are LOX IMVI melanoma; RXF 393 renal; UACC-62 melanoma; SF-539 CNS; HL-60(TB) leukemia; NCI-H522 lung; 786-0 renal; SN12C renal; OVCAR-3 ovarian; SW-620 colon.
What all share (test): NCI-60 cell line screen, 48 h

SMILES strings stand for the structures.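 48-hour exposure; five concentrations; linearly interpolated endpoints. GI50 = concentration required for 50% inhibition of growth. TGI denotes the concentration required for complete inhibition of growth.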

With `C[C@@]1(F)[C@H](O)[C@@H](CO)O[C@H]1n1ccc(=O)[nH]c1=O`, the GI50 with LOX IMVI melanoma, in the test on RXF 393 renal, with UACC-62 melanoma, in the test with SF-539 CNS, in the test on HL-60(TB) leukemia and with NCI-H522 lung was more than 100 µM in each case. Also, the GI50 in the test on 786-0 renal, with SN12C renal, in the test on OVCAR-3 ovarian and with SW-620 colon was more than 100 µM throughout. Besides, the TGI in the test with LOX IMVI melanoma, with RXF 393 renal, in the test with UACC-62 melanoma, with SF-539 CNS, in the test on HL-60(TB) leukemia and in the test on NCI-H522 lung was more than 100 µM each time. Moreover, the TGI in the test on 786-0 renal, in the test on SN12C renal, in the test on OVCAR-3 ovarian and with SW-620 colon was more than 100 µM in each case.

Consider `Cn1c(COC(=O)NCCc2ccccn2)nc2c(N3CCOCC3)nc(Cl)nc21`, for which the GI50 in the test on LOX IMVI melanoma is 0.899 µM; in the test on RXF 393 renal, 1.06 µM; with UACC-62 melanoma, 1.65 µM; in the test with SF-539 CNS, 1.48 µM; with HL-60(TB) leukemia, 1.17 µM; in the test on NCI-H522 lung, 1.35 µM. The GI50 in the test with 786-0 renal is 1.34 µM; in the test on SN12C renal, 1.37 µM; in the test with OVCAR-3 ovarian, 1.08 µM; with SW-620 colon, 1.28 µM. Moreover, the TGI in the test on LOX IMVI melanoma stood at 2.39 µM; in the test with RXF 393 renal it was 2.45 µM; in the test with UACC-62 melanoma, 3.29 µM; with SF-539 CNS, 2.84 µM; with HL-60(TB) leukemia, 4.61 µM; with NCI-H522 lung it was 3.16 µM. Also, the TGI with 786-0 renal was 2.95 µM; in the test with SN12C renal it was 3.48 µM; with OVCAR-3 ovarian, 2.58 µM; in the test with SW-620 colon it was 2.98 µM.

With `CC1CCC2C(C)C(=O)OC2C2(C)C(=O)C=CC12` (stereo not given), the TGI in the test with LOX IMVI melanoma, in the test with RXF 393 renal, in the test on UACC-62 melanoma, in the test on SF-539 CNS, in the test on HL-60(TB) leukemia and in the test with NCI-H522 lung was more than 10 µM each time. Also, the TGI in the test on 786-0 renal, in the test with SN12C renal, with OVCAR-3 ovarian and with SW-620 colon was more than 10 µM throughout.

Turning to `COC(=O)C1CC(c2ccc(OC)c(OC)c2)OC1=O` (mixture of isomers), the TGI with LOX IMVI melanoma, in the test with RXF 393 renal, in the test with UACC-62 melanoma, with SF-539 CNS, in the test with HL-60(TB) leukemia and with NCI-H522 lung was more than 100 µM each time. Besides, the TGI in the test on 786-0 renal, in the test on SN12C renal, in the test with OVCAR-3 ovarian and in the test on SW-620 colon was more than 100 µM throughout.

With `C1=CC(=P(c2ccccc2)(c2ccccc2)c2ccccc2)C=C1`, the TGI was found to be 24.6 µM in the test with LOX IMVI melanoma; 28.2 µM in the test on RXF 393 renal; 20 µM in the test with UACC-62 melanoma; 29.1 µM with SF-539 CNS; 9.01 µM with HL-60(TB) leukemia; 10.1 µM in the test with NCI-H522 lung. Further, the TGI in the test with 786-0 renal came to 28.8 µM; in the test with SN12C renal, 43.4 µM; in the test on OVCAR-3 ovarian it was 23.7 µM; in the test on SW-620 colon it was 56 µM.

Take `COC(=O)C1C=CCC2CCCCC21N1CCCC1` (stereo not given): the TGI in the test with LOX IMVI melanoma was more than 100 µM; in the test on RXF 393 renal, more than 100 µM; with UACC-62 melanoma, more than 100 µM; with SF-539 CNS, more than 100 µM; with HL-60(TB) leukemia it was 49.1 µM; with NCI-H522 lung, more than 100 µM. The TGI in the test on 786-0 renal, in the test with SN12C renal, in the test with OVCAR-3 ovarian and with SW-620 colon was more than 100 µM each time.

On to `Cc1nnc2n1N=C(c1ccccc1)C(c1ccccc1)S2` (stereo not given), for which the TGI is more than 100 µM with LOX IMVI melanoma; 85.7 µM in the test on RXF 393 renal; more than 100 µM in the test with UACC-62 melanoma; 72.4 µM in the test with SF-539 CNS; 64.5 µM with HL-60(TB) leukemia; 57.7 µM in the test on NCI-H522 lung. The TGI in the test with 786-0 renal is more than 100 µM; with SN12C renal, more than 100 µM; in the test with OVCAR-3 ovarian it was more than 100 µM; in the test on SW-620 colon it was 26.8 µM.

In the case of `NCCO/C=C/C(N)C(=O)O` (stereo not given), the TGI in the test on LOX IMVI melanoma, with RXF 393 renal, with UACC-62 melanoma, in the test on SF-539 CNS, in the test on HL-60(TB) leukemia and with NCI-H522 lung was more than 100 µM in each case. Besides, the TGI in the test with 786-0 renal, in the test with SN12C renal, in the test on OVCAR-3 ovarian and with SW-620 colon was more than 100 µM in each case.

On to `Cn1c(COC(=O)NCCn2ccnc2)nc2c(N3CCOCC3)nc(-c3ccccc3)nc21`, for which the GI50 with LOX IMVI melanoma is 0.152 µM; with RXF 393 renal, 0.488 µM; in the test with UACC-62 melanoma, 1.23 µM; in the test with SF-539 CNS it was 1.17 µM; with HL-60(TB) leukemia, 0.615 µM; with NCI-H522 lung, 0.352 µM. For the same compound, the GI50 in the test on 786-0 renal was 0.72 µM; in the test with SN12C renal it was 0.727 µM; with OVCAR-3 ovarian it was 0.174 µM; in the test with SW-620 colon, 0.226 µM. For the same compound, the TGI with LOX IMVI melanoma was 0.314 µM; in the test with RXF 393 renal, 1.8 µM; with UACC-62 melanoma, 2.5 µM; with SF-539 CNS, 2.4 µM; in the test with HL-60(TB) leukemia it was 2.48 µM; in the test on NCI-H522 lung, 1.56 µM. The TGI worked out at 2.1 µM with 786-0 renal, 2.06 µM in the test on SN12C renal, 0.367 µM in the test on OVCAR-3 ovarian and 0.58 µM in the test with SW-620 colon.

`COc1ccc2[nH]c(C(=O)N3CCN(C(=O)OCc4ccc5c(Cl)cc(Cl)c(O)c5n4)CC3)cc2c1`: the GI50 is 1.43 µM in the test with LOX IMVI melanoma; 0.557 µM with RXF 393 renal; 1.28 µM in the test with UACC-62 melanoma; 1.31 µM in the test on SF-539 CNS; 0.977 µM with HL-60(TB) leukemia; 0.828 µM in the test on NCI-H522 lung. For the same compound, the GI50 in the test with 786-0 renal was 1.37 µM; in the test with SN12C renal, 1.27 µM; in the test with OVCAR-3 ovarian, 0.504 µM; in the test with SW-620 colon, 0.401 µM. For the same compound, the TGI in the test with LOX IMVI melanoma came out at 2.81 µM; in the test on RXF 393 renal, 1.81 µM; in the test on UACC-62 melanoma it was 2.59 µM; in the test on SF-539 CNS, 2.58 µM; with HL-60(TB) leukemia, 2.85 µM; in the test with NCI-H522 lung, 2.35 µM. In addition, the TGI in the test with 786-0 renal worked out at 2.82 µM; in the test on SN12C renal it was 2.56 µM; in the test on OVCAR-3 ovarian, 1.83 µM; in the test with SW-620 colon, 1.61 µM.

As to `COc1ccc(-c2ccc(OC)c(OC)c2OC)cc1`, the GI50 in the test with LOX IMVI melanoma was 2.82 µM; in the test with RXF 393 renal, 2.83 µM; in the test on UACC-62 melanoma, 3.29 µM; with SF-539 CNS it was 1.24 µM; with HL-60(TB) leukemia, 1.04 µM; in the test on NCI-H522 lung, 1.56 µM. Further, the GI50 with 786-0 renal is 8.23 µM; with SN12C renal, 6.88 µM; with OVCAR-3 ovarian, 1.41 µM; in the test on SW-620 colon, 0.528 µM. In addition, the TGI in the test on LOX IMVI melanoma was more than 100 µM; in the test on RXF 393 renal it was more than 100 µM; in the test with UACC-62 melanoma it was more than 100 µM; with SF-539 CNS, 5.31 µM; in the test with HL-60(TB) leukemia, 9.93 µM; in the test with NCI-H522 lung, more than 27.9 µM. Also, the TGI in the test with 786-0 renal was 82.2 µM; in the test with SN12C renal it was more than 100 µM; in the test on OVCAR-3 ovarian, 4.49 µM; in the test with SW-620 colon it was more than 100 µM.

Take `Nc1cc2c3c(cccc3c1)C(=O)N(CCN1CCCC1)C2=O`: the GI50 in the test with LOX IMVI melanoma is 2.25 µM; in the test with RXF 393 renal, 6.43 µM; in the test on UACC-62 melanoma it was 2.47 µM; with SF-539 CNS, 3.87 µM; in the test with HL-60(TB) leukemia, 4.16 µM; in the test on NCI-H522 lung, 3.46 µM. Moreover, the GI50 was 4.5 µM in the test on 786-0 renal, 2.73 µM in the test on SN12C renal, 5.26 µM with OVCAR-3 ovarian and 2.39 µM in the test on SW-620 colon. In addition, the TGI in the test on LOX IMVI melanoma was 13.4 µM; in the test with RXF 393 renal it was 42.3 µM; in the test with UACC-62 melanoma, 9.99 µM; with SF-539 CNS it was 18.2 µM; in the test with HL-60(TB) leukemia, more than 100 µM; in the test with NCI-H522 lung it was 19.4 µM. In addition, the TGI was more than 55.7 µM in the test on 786-0 renal, more than 84.8 µM in the test with SN12C renal, 29.3 µM in the test with OVCAR-3 ovarian and more than 53.8 µM with SW-620 colon.

Regarding `Clc1ccccc1C(Nc1cnccn1)Nc1cnccn1`, the TGI in the test on LOX IMVI melanoma, in the test with RXF 393 renal, in the test on UACC-62 melanoma, in the test on SF-539 CNS, with HL-60(TB) leukemia and in the test with NCI-H522 lung was more than 100 µM throughout. The TGI in the test with 786-0 renal, with SN12C renal, with OVCAR-3 ovarian and in the test with SW-620 colon was more than 100 µM each time.

In the case of `COC1=CC(c2ccc[nH]2)=N/C1=C\c1[nH]c(C)c(C(=O)CCCCCCCCC(=O)O[C@H]2CC[C@H]3C4CCc5cc(O)ccc5C4CC[C@]23C)c1C` (stereo not given in full), the GI50 with LOX IMVI melanoma is 0.0764 µM; with RXF 393 renal, 1.21 µM; in the test with UACC-62 melanoma it was 0.182 µM; with SF-539 CNS, 0.46 µM; in the test on HL-60(TB) leukemia, 0.289 µM; in the test on NCI-H522 lung, 0.277 µM. The GI50 in the test on 786-0 renal is 0.787 µM; in the test on SN12C renal, 0.6 µM; with OVCAR-3 ovarian, 0.493 µM; in the test with SW-620 colon it was 0.197 µM. Also, the TGI in the test on LOX IMVI melanoma was 0.267 µM; with RXF 393 renal it was 24.5 µM; in the test on UACC-62 melanoma it was 1.09 µM; in the test with SF-539 CNS, more than 50 µM; in the test with HL-60(TB) leukemia, more than 50 µM; in the test on NCI-H522 lung, more than 33.9 µM. The TGI in the test with 786-0 renal was more than 12.8 µM; in the test on SN12C renal, more than 50 µM; with OVCAR-3 ovarian, 15 µM; in the test with SW-620 colon, more than 50 µM.
